Assay results published in patent US6583177B2, “Leukotriene B4 antagonist compounds and method for treatment” (Ono Pharmaceutical Co., Ltd., priority 1994, dated 2003).
Each block holds one molecule with its values, some of them ahead of it.

Key:
LTB4 receptor = biological target: T1, LTB4 receptor (Homo sapiens, UniProt Q15722); test: Binding inhibition against 3H-LTB4 on the human polymorphonuclear leukocyte (PMN); settings: percentage of inhibition of specific 3H-LTB4 (4nM) binding to human PMN, 0° C. for 20 min; formula (IB) compounds, Table 18
T1 construct: The reaction was started by addition of a thoroughly mixed PMN cell suspension (1.6×10^6 cells); endogenous in cells; host or cells: human polymorphonuclear leukocytes (PMN), whole-cell suspension
Procedure: Binding Inhibition Against ^3H-LTB4 on the Human Polymorphonuclear Leukocyte (PMN)
0.049 ml Hanks balanced salt solution (HBSS), 0.001 ml test compound and 0.05 ml ^3H-LTB4 (4nM) were added to polypropylene tubes and mixed. The reaction was started by addition of a thoroughly mixed PMN cell suspension (1.6×10^6 cells), followed by incubation at 0° C. for 20 min. The reaction was terminated by the addition of ice-cold HBSS (2.5 ml). PMNs were harvested by vacuum filtration through Whatman GF/C glass fiber filters on a Brandel cell harvester (BRANDEL, M-24R). The filters were then washed 2 times to remove free ^3H-LTB4 with 2.5 ml of the ice-cold PBS (−) solution. The filters were transferred to each vial, and equilibrated after adding 8 ml ACS II cocktail (Amersham). The radioactivity was measured by liquid scintillation counter (Aloka, LSC-5100).
Specific binding of ^3H-LTB4 to the LTB4 receptor was defined as total binding minus nonspecific binding. Nonspecific binding was the amount of ^3H-LTB4 binding in the presence of 1.5 μM LTB4 instead of the test compound. The inhibitory effect of test compound was calculated from the following equation.
The percentage of inhibition (%)=100−(B1/B0×100)
B1: Specific ^3H-LTB4 binding in presence of test compound
B0: Specific ^3H-LTB4 binding in absence of test compound
The compounds of the formula (IB), of the present invention have an antagonistic activity on LTB4. The results which are measured by method as hereinbefore described in Example 1(A), are shown the following Table 18.

[1] = biological target: T2, trypsin (derived from bovine pancreas) (Bos taurus, UniProt P00760); test: Inhibitory activity on trypsin; format: biochemical; settings: bovine pancreas trypsin, BAPNA substrate, 30° C., pH 8.0; read-out: inhibitory activity on trypsin IC50
T2 construct: a solution of 80 mU/ml trypsin (derived from bovine pancreas) (50 μl); from tissue; host or cells: bovine pancreas
T2 sequence (P00760 24-246): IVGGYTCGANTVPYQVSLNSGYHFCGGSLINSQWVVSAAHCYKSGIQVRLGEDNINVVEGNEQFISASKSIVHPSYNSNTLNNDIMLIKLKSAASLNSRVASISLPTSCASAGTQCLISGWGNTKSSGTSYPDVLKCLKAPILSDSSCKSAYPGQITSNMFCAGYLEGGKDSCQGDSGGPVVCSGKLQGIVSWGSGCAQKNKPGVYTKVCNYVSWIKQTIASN
Procedure: (2) Inhibitory Activity on Trypsin
To a mixture of a 0.2 M HEPES.sodium hydroxide buffer solution (pH 8.0, 100 μl) and distilled water (640 μl), were added a test compound in various concentration or water (10 μl), and a solution of 80 mU/ml trypsin (derived from bovine pancreas) (50 μl) and then the mixture was preincubated for one minute at 30° C. To the solution thus obtained was added 2.5 mM BAPNA (200 μl) and the mixture was incubated at 30° C. The absorbance at 405 nm was measured. Percentage (%) of the absorbance in the presence of a test compound was calculated when the absorbance in the absence thereof was regarded as 100%, and therefrom IC50 value was calculated.
HEPES represents 4-2-hydroxyethyl)-1-piperazineethanesulfonic acid, and
BAPNA represents α-N-benzoyl-DL-arginine-p-nitroanilide hydrochloride.

[2] = biological target: T3, PLA2 (derived from hog pancreas) (Sus scrofa, UniProt P00592); test: Inhibitory activity on PLA2; format: biochemical; settings: hog pancreas PLA2, 10PY-PC substrate, fluorescence, pH7.5
T3 construct: a solution of 10 mU/ml PLA2 (derived from hog pancreas) (50 μl); from tissue; host or cells: hog pancreas
Procedure: (1) Inhibitory Activity on PLA2
A reaction solution including 50 mM tris-HCl buffer (pH7.5, 874 μl; containing 100 mM sodium chloride, 1 mM EDTA), 1M calciumchloride (6 μl), 1% bovine serum albumin (10 μl) and 2.5 mM 10PY-PC (10 μl), was prepared. To the solution were added a test compound in various concentration or water (50 μl), and a solution of 10 mU/ml PLA2 (derived from hog pancreas) (50 μl). The appearance of fluorescence was measured (Ex=345 nm, Em=396 nm). Percentage (%) of the strength of fluorescence in the presence of a test compound was calculated when the strength of that in the absence thereof was regarded as 100%, and therefrom IC50 value was calculated.
10PY-PC represents 3′-palmitoyl-2-(1-pyrenedecanoyl)-L-α-phosphatidylcholine, […]

T3 sequence (P00592 23-146): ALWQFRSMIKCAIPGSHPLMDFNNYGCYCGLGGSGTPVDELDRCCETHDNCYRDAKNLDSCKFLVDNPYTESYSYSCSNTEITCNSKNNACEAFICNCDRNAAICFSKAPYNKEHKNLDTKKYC
T1 sequence (Q15722 whole entry): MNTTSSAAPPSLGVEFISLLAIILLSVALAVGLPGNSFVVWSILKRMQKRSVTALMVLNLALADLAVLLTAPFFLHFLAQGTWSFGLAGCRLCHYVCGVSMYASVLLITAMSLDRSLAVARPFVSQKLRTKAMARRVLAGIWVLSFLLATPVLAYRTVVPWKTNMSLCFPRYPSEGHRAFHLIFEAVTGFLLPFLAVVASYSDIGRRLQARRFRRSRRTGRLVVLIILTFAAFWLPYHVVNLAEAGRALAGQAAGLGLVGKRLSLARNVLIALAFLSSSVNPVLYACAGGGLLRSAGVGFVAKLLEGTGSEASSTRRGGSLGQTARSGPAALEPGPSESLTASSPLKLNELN

SMILES: C=CCC(NC(=O)/C(C)=C/c1ccc(C(=O)Oc2ccc(C(=N)N)cc2)cc1)(C(=O)OCC)C(=O)OCC [Example 2(o)]
inhibition (LTB4 receptor): 85.8% | IC50 [1]: 0.14 µM | IC50 [2]: 12 µM

SMILES: CCOC(=O)CC[C@H](NC(=O)c1ccc(/C(C)=C/C(=O)Oc2ccc(C(=N)N)cc2)cc1)C(=O)OCC [Example 2(p)]
inhibition (LTB4 receptor): 95.2% | IC50 [1]: 0.13 µM | IC50 [2]: 29 µM

SMILES: C=CCN(CC(=O)OCC)C(=O)C(=Cc1ccc(C(=O)Oc2ccc(C(=N)N)cc2)cc1)C(=O)OCC [Example 2(s)]
inhibition (LTB4 receptor): 83% | IC50 [1]: 0.16 µM | IC50 [2]: 44 µM

The remaining molecules from weak to strong by IC50 [1], led by results:

inhibition (LTB4 receptor): 98% | IC50 [1]: 0.16 µM | IC50 [2]: 34 µM
SMILES: C=CCN(CC(=O)OCC)C(=O)c1ccc(/C(C)=C/C(=O)Oc2ccc(C(=N)N)cc2)cc1 [Example 2(q)]

inhibition (LTB4 receptor): 80.1% | IC50 [1]: 0.16 µM | IC50 [2]: 46 µM
SMILES: CCOC(=O)CC[C@H](NC(=O)C(=Cc1ccc(C(=O)Oc2ccc(C(=N)N)cc2)cc1)C(=O)OCC)C(=O)OCC [Example 2(r)]
